For data set [1], the system named is Hs 683. Kind of data set: Growth inhibition of human Hs 683 cells. Type of data set: functional.
Data set [2] in a line: Growth inhibition of human U373 cells. To be noted: U373 MG. In kind it is functional.
For data set [3], the system named is U-87 MG. The experiment in a line: Cytotoxicity against human U87 cells. In kind it is functional, U-87MG ATCC.
The subject of data set [4] is T98G. Kind of data set: Cytotoxicity against human T98G cells. Type of data set: functional.
The nature of data set [5]: Antiproliferative activity against human U-343MG cells assessed as inhibition of cell growth incubated for 72 hrs by MTS assay. In kind it is functional, cell-based.
Data set [6] is described as follows: Antiproliferative activity against human ANGM-CSS cells assessed as inhibition of cell growth incubated for 72 hrs by MTS assay. Type of data set: functional, cell-based.
For data set [7], the system named is C6. Kind of data set: Anticancer activity against rat C6 cells. In kind it is functional, cell-based.
Data set [8] is described as follows: Cytotoxicity against human glial cells. In kind it is toxicity, cell-based, Glial cell.
The test system of data set [9] is Astrocyte. The experiment in a line: Cytotoxicity against NHA cells. Type of data set: functional, cell-based. As to conditions: Homo sapiens.
Data set [10] in a line: Cytotoxicity against patient derived xenografted D456 cells. To be noted: Homo sapiens. In kind it is functional, cell-based. In general terms: A xenograft is tissue or cells of one species grown in another, often human tumour cells in immunodeficient mice.
The nature of data set [11]: Antiproliferative activity against human U-87 MG cells incubated for 72 hrs by MTT assay. In kind it is functional, cell-based, U-87MG ATCC. (In general: Formazan colour is commonly taken as a measure of viable cells.)
The subject of data set [12] is U-251. Kind of data set: Cytotoxicity against human U-251 cells. In kind it is functional, cell-based.
The nature of data set [13]: Cytotoxicity against U87MG Human EGFR vIII cells. Type of data set: functional, cell-based.
Data set [14] deals with LN-229. Kind of data set: Cytotoxicity against human LN-229 cells assessed as cell viability measured after 48 hrs by countess-II FL Hemocytometer method. In kind it is functional, cell-based. To be noted: LN-229, 48 h.
The subject of data set [15] is SNB-19. The experiment in a line: Cytotoxicity against human SNB-19 cells assessed as cell viability measured after 48 hrs by countess-II FL Hemocytometer method. In kind it is functional, cell-based. To be noted: SNB-19, 48 h.
The subject of data set [16] is U-251. Kind of data set: Cytotoxicity against human U251N cells incubated for 24 to 72 hrs by fluorescence microscopic analysis. In kind it is functional, cell-based.
The test system of data set [17] is U-251. Kind of data set: Inhibition of cell migration of human U251N cells relative to control. In kind it is functional.
Data set [18] has as its system U-251. Kind of data set: Cytotoxicity against human U-251MG cells assessed as cell viability. Type of data set: functional, cell-based.
For data set [19], the system named is T98G. The experiment in a line: Cytotoxicity against human T98G cells assessed as cell viability. Type of data set: functional, cell-based.
A short description of data set [20]: Cytotoxicity against human U-87G cells assessed as cell viability. In kind it is functional, cell-based. To be noted: U87G.
Data set [21] is described as follows: Plasma stability in mouse relative to control. Type of data set: ADME, cell-free.
Data set [22] is described as follows: Plasma stability in monkey relative to control. In kind it is ADME, cell-free, Macaca mulatta. As to conditions: rhesus monkey.
A short description of data set [23]: Plasma stability in human relative to control. In kind it is ADME, cell-free.
A short description of data set [24]: Antiproliferative activity against human U-87 MG cells assessed as inhibitionof cell growth incubated for 24 to 72 hrs by MTT assay. In kind it is functional, cell-based, U-87MG ATCC.
Data set [25] can be described thus: Cytotoxicity against human U-87 MG cells. In kind it is functional, cell-based, U-87MG ATCC.
Data set [26] relates to DBTRG-05MG. The experiment in a line: Cytotoxicity against human DBTRG cells. Type of data set: functional, cell-based.
Data set [27] in a line: Cytotoxicity against patient derived glioblastoma T111 cells. In kind it is functional. As to conditions: Homo sapiens, read-out: LC50 (the source's name).
Data set [28] can be described thus: Cytotoxicity against patient derived glioblastoma T78 cells. In kind it is functional. As to conditions: Homo sapiens, read-out: LC50 (the source's name).
Data set [29] can be described thus: Cytotoxicity against patient derived glioblastoma T86 cells. Type of data set: functional. To be noted: Homo sapiens, read-out: LC50 (the source's name).
Data set [30] can be described thus: Inhibition of cell migration of patient derived glioblastoma T86 spheroid cell culture treated at 10 uM for 24 hrs by propidium iodide staining method relative to control. Type of data set: functional. To be noted: Homo sapiens.
Data set [31] in a line: Inhibition of cell migration of patient derived glioblastoma T78 spheroid cell culture treated at 10 uM for 24 hrs by propidium iodide staining method relative to control. In kind it is functional. As to conditions: Homo sapiens.
The target of data set [32] is Translocator protein (Homo sapiens, UniProt P30536). The experiment in a line: Binding affinity to TSPO (unknown origin).
Translocator protein, sequence (P30536 whole entry): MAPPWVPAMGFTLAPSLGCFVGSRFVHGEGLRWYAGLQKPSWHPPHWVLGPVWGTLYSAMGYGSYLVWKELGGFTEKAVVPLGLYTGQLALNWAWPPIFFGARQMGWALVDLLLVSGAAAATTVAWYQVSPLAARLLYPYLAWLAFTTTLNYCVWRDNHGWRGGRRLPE
A short description of data set [33]: Water solubility of the compound. In kind it is physicochemical.
The subject of data set [34] is U-251. The experiment in a line: Cytotoxicity against human U-251 cells assessed cell growth inhibition incubated for 48 hrs by CCK8 assay. As to conditions: U-251, 48 h. Type of data set: functional, cell-based.
A short description of data set [35]: Cytotoxicity against human 091214 cells assessed cell growth inhibition incubated for 48 hrs by CCK8 assay. Type of data set: functional, cell-based. To be noted: Homo sapiens, 091214, 48 h.

The record followed here is ChEMBL document CHEMBL5137060, “Glioblastoma: Current Status, Emerging Targets, and Recent Advances” (J Med Chem, 2022).

Where only a bound is given, the exact number is not on record here.

As to `O=C(c1ccccc1)c1[nH]c2[nH]cnc(=O)c2c1-c1ccccc1`, the GI50 (as a rule, the concentration at which growth is held to half of that of the control) in data set [1] was 0.01 µM; in data set [2] it was at most 0.01 µM.
For `O=C(NO)C(c1ccccc1)c1c(-c2ccc3ccccc3c2)[nH]c2ccccc12` (stereo not drawn), the values for the GI50 in data set [3] and in data set [4] were 21.3 µM and 1.9 µM, respectively.
On the same counts, the results for `Cc1ccc(C(C(=O)NO)c2c(-c3ccc4ccccc4c3)[nH]c3ccccc23)cc1C` (stereo not drawn) are 6.7 µM and 7.5 µM.
Take `O=C1Nc2ccc(NC(=O)[C@H](NC(=O)c3cccn(Cc4ccc(F)c(F)c4)c3=O)c3ccccc3)cc2/C1=C/c1cnc[nH]1`: the IC50 (in general, the concentration that gives 50% inhibition) stood at 0.0497 µM in [5] and 0.044 µM in data set [6].
For `COC(=O)/C=C/c1ccc(/C=C/c2ccc(O)c(O)c2)cc1`, the IC50 in [7] worked out at 5.4 µM; in data set [8] it was 142 µM.
`O=C1CC(c2ccc(-c3cc[nH]n3)s2)c2cc(N3CCNC3=O)ccc2N1` (stereo not drawn): the IC50 is 4.11 µM in data set [9] and 1.59 µM in data set [10].
As to `O=C(NO)c1ccc(Cn2c(=O)n(CCc3ccccc3)c(=O)c3ccccc32)cc1`, the IC50 in data set [11] was found to be 1.56 µM.
With `CC(C)(C)OC(=O)N1CC[C@@]2(C(=O)Nc3ccccc32)[C@@H]1c1cccc(Nc2ccc(CO)c(S(C)(=O)=O)c2)c1`, the results for the IC50 in data set [12] and in data set [13] were 2.23 µM and 1.78 µM, respectively.
For `CCOC(=O)/C=C/c1ccc(/C=C/c2ccc(O)c(O)c2)cc1`, the IC50 worked out at 3.9 µM in data set [7] and 86 µM in data set [8].
For `CC(C)(C)[Si](O[C@H]1[C@H](O)C[C@](O)(CO)C[C@H]1O[Si](c1ccccc1)(c1ccccc1)C(C)(C)C)(c1ccccc1)c1ccccc1`, the IC50 in [14] is 10.7 µM; in data set [15], 28.2 µM.
`O=C1Nc2ccccc2C1Cc1ccc2cc[nH]c2c1` (stereo not drawn): the concentration for half-maximal inhibition (IC50) in data set [9] was determined as 24.7 µM; in data set [10], 21.3 µM.
With `NC(=O)CC(c1ccc(NC(=O)c2cccnc2)cc1)c1cccc2[nH]ccc12` (stereo not drawn), the values for the IC50 in data set [9] and in data set [10] were 27.3 µM and 8.65 µM, respectively.
Turning to `O=C(Nc1ccc(Cl)c(C(F)(F)F)c1)c1ccc(Cl)cc1`, the IC50 in data set [9] is 14.2 µM; in [10], 2.96 µM.
The compound `COc1cc(NC(C)CCCNC(=O)CCCC(=O)NO)c2ncccc2c1` (stereo not drawn) displayed an IC50 in data set [16] of 10 µM. The “inhibition (INH)” value in [17] is 42%.
As for `O=C(COc1ccc2c(=O)c(-c3ccccc3)coc2c1)N=c1[nH]c2ccccc2[nH]1`, the IC50 in data set [9] amounted to 4.77 µM; in data set [10] it was 6.58 µM.
For `C[C@H]1O[C@@H](O[C@H]2CC[C@]3(C=O)[C@H]4CC[C@]5(C)[C@@H](C6CCC(=O)OC6)CC[C@]5(O)[C@@H]4CC[C@]3(O)C2)[C@H](O)[C@@H](O)[C@@H]1O` (stereo partly drawn), the IC50 in data set [18] was determined as 70 µM; in [19] it was 50 µM; in data set [20], 40 µM.
In the case of `CC(C)OC(=O)[C@H](CCC(=O)C=[N+]=[N-])NC(=O)[C@@H](N)Cc1c[nH]c2ccccc12`, the Stability in data set [21] was 0%; in data set [22], 10%; in data set [23], 61%.
Turning to `C[C@@H]1C2CCCC3CC[C@]4(C)OO[C@]32[C@H](O[C@@H]1OCCCN=C=S)O4` (stereo partly drawn), the IC50 in data set [24] came to 7.41 µM.
For the compound `O=C1c2cc(-c3cccnc3)ncc2C(=O)c2c1c(-c1ccccn1)nn2-c1ccc(F)cc1F`, the IC50 in [25], in data set [12] and in data set [26] was 2.5 µM in each case.
As to `CCn1c(-c2nonc2N)nc2cncc(CNC3CCNCC3)c21`, the CC50 in [27] came to 112 µM; in data set [28], 115 µM; in data set [29], 456 µM. For the same compound, the results for the inhibition at 10 µM in data set [30] and in data set [31] were 60.4% and 37.8%, respectively.
Regarding `Cc1ccc(CN(C)C(=O)c2nc(-c3ccccc3Cl)c3ccccc3n2)cc1`, the Ki (as a rule, a dissociation constant, usually derived from enzyme kinetics or from competition with a known ligand) in data set [32] was found to be 0.00399 µM.
On to `CCOC(=O)[C@H](CCC(=O)C=[N+]=N)NC(=O)OC(C)OC(=O)C(C)(C)C` (stereo partly drawn), for which the solubility (as a rule, the concentration that dissolves in the medium under given conditions) in data set [33] was over 25 mg/mL.
For the compound `CCOC(=O)[C@H](CCC(=O)C=[N+]=[N-])NC(=O)[C@@H](N)Cc1c[nH]c2ccccc12`, the Stability in data set [21] is on record as 0%; in data set [22], 4%; in data set [23], 12%.
With `O=C1Nc2ccccc2C12CCN[C@@H]2c1ccccc1` (stereo partly drawn), the IC50 came out at 101 µM in data set [9] and 41.1 µM in [10].
`C[C@@H]1O[C@@H](O[C@H]2CC[C@H](O[C@H]3[C@H](O)C[C@H](c4ccc5c(c4O)C(=O)c4ccc(C[C@](C)(CC(=O)O)O[C@H]6CC[C@H](O[C@H]7CCC(=O)[C@H](C)O7)[C@H](C)O6)c(O)c4C5=O)O[C@@H]3C)O[C@H]2C)CCC1=O` [GRINCAMYCIN B]: the IC50 in data set [34] was 2.04 µM; in [35], 3.11 µM.
